Where no end group is shown, it is not given here.
Columns and labels:
E. coli and S. aureus = test: Salt tolerance (MICs under 0-150 mM NaCl, summary); type: cell-based, Escherichia coli; Staphylococcus aureus; parameters: key: Up to 50 mM: no effects on antibacterial activity up to 50 mM NaCl but increase in the MICs for E. coli and S. aureus at 100 mM NaCl; Intolerant: not resistant to salt effects even at 50 mM NaCl; Up to 150 mM: no effects on antibacterial activity up to 150 mM NaCl; conditions: MICs for E. coli and S. aureus in MHB with 0, 50, 100 or 150 mM NaCl
Experimental: The activity of peptides was determined against the Gram-positive Staphylococcus aureus (ATCC 25923), and the Gram-negative Escherichia coli (ATCC 25922) and Pseudomonas aeruginosa (ATCC 9027) bacteria. Selected peptides were also tested against two clinical isolates of methicillin-resistant Staphylococcus aureus (MRSA), M173525 and M180920, kindly provided by Dr P. B. Ward (Microbiology Department, Austin and Repatriation Medical Centre, Heidelberg West, Victoria, Australia). The Minimum inhibitory concentration (MIC) of peptides was determined by the microtitre broth dilution method, as described in Phillips et al.. Briefly, bacteria were grown in Mueller-Hinton Broth (MHB) at 37 °C overnight with shaking (200 rpm). The cultures were adjusted to 0.5 McFarland turbidity standard (approximately 1 × 10^8 colony forming units (CFU)/mL), then diluted 1:100 in MHB (1 × 10^6 CFU/mL). A total of 75 μL of these suspensions were mixed with 25 μL of peptide solutions (final concentrations 250 to 0.5 μg/mL) and the microtitre plates incubated overnight at 37 °C. Positive growth controls (inoculum and MHB, with no peptide) and sterility controls (0.01% glacial acetic) were also included. Post-incubations, the absorbance of cultures at 595 nm was measured using a microplate reader (POLARstar Omega, Germany). […] To evaluate salt sensitivity of peptides up to physiological levels (150 mM NaCl), overnight cultures of S. aureus and E. coli adjusted to 0.5 McFarland turbidity standard were diluted 1:100 in MHB containing 0, 50, 100 or 150 mM NaCl, and the MICs of peptides determined as above. All tests were conducted in triplicate. The results are shown as the mode of values obtained.

[1] = system: pBlueScript SK+ plasmid DNA; test: In vitro DNA-binding assay (gel retardation); conditions: 100 ng pBlueScript SK+, peptide 8-500 µg/mL, 1 h room temperature, 1% agarose
Experimental: The ability of peptides to bind to purified DNA (indicative of in vivo DNA binding potential) was tested by the modified gel retardation assay developed by Alfred et al.. The DNA of pBlueScript SK+ (100 ng) was incubated with peptides (to final concentrations of 8, 16, 32, 64, 125, 250 or 500 µg/mL) in 15 µL volumes made with sterile MilliQ water, the held at room temperature for 1h. Loading dye was added to each sample and the samples electrophoresed on 1% agarose gels. The gels were then immersed in ethidium bromide ([…]) then visualized and imaged

| Substance | Salt Tolerance (E. coli and S. aureus) | Binding to DNA in vitro (concentration inhibiting plasmid migration) [1] [µg/mL] |
| --- | --- | --- |
| RKRWWRWWKWWKR-NH2 [Peptide P1] | Up to 150 mM | – |
| WRWWKWW-NH2 [Peptide W7] | Up to 150 mM | ≥ 16 |

— publication PMC7696940, “Effects of Rationally Designed Physico-Chemical Variants of the Peptide PuroA on Biocidal Activity towards Bacterial and Mammalian Cells” (International Journal of Molecular Sciences, 2020)
